{
  "source": "patent US20210113602A1",
  "about": "“USE OF 6-THIO-2'-DEOXYGUANOSINE (6-THIO-dG) TO TREAT MELANOMA” (The Board of Regents of the University of Texas System, priority 2018, published 2021)",
  "assay_type_in_all_cases": "cell-based, human",
  "key": {"[1]": {"system": "NRAS mutant melanoma cells", "experiment": "Telomere dysfunction-induced foci (TIF) assay", "details": "6-thio-dG for 7 days", "experimental": "Supplementary FIGS. 6a-b. […] NRAS mutant melanoma cells WM3000 were transduced with TERT shRNA and treated with NAC […] for 7 days. (Supplementary FIG. 6a) TIFs were assessed by indirect immunofluorescence combined with fluorescence in situ hybridization (FISH). Representative images are shown (scale bar=10 μm). (Supplementary FIG. 6b) Quantification of TIF positive cells. Cells were scored as TIF positive when three or more y-H2AS foci (green) were co-localizing with telomere foci (red). Data represent average of thirteen fields imaged +/−SD.\nSupplementary FIGS. 8a-d. NRAS mutant melanoma cells are sensitive to the telomere uncapping agent 6-thio-dG. NRAS^mut melanoma cells were treated with 6-thio-dG for 6, 12 or 18 days. (Supplementary FIG. 8a) Relative cell number was assessed by Cyrstal Violet assay and calculated relative to DMSO-treated cells. […] (Supplementary FIG. 8c) NRAS^mut cells were treated with 6-thio-dG for 7 days and telomere-induced foci (TIF) were determined by indirect immunofluorescence combined with fluorescence in situ hybridization (FISH). […] (Supplementary FIG. 8d) Quantification of TIF assay. Cells were scored as TIF-positive when four or more γ-H2AX foci (green) were co-localizing with telomere foci (red). […] P values were calculated by unpaired Student's t-test.\n(§1) DNA damage and telomere dysfunction assay (TIF). […] Mean fluorescence staining was quantified by flow cytometry. […]"}, "[2]": {"system": "NRAS mutant melanoma cells", "experiment": "DNA damage, γH2AX staining", "details": "1 μM for 7 days", "experimental": "FIGS. 2a-h. […] (FIGS. 2a-c) NRASmut melanoma cells (FIG. 2a), BRAF-V600E/NRAS mutant cells derived from melanoma patients resistant to BRAF/MEK inhibitors (FIG. 2b), or non-transformed melanocytes and fibroblasts (FIG. 2c) were treated with 6-thio-dG for 7 days. Cell viability was measured by Alamar Blue assay and calculated relative to DMSO-treated cells. (FIG. 2d) NRASmut melanoma cells and non-transformed human fibroblasts were treated with 1 or 5 μM 6-thio-dG for 7 or 14 days. Cell death was assessed by PSVUe staining. Percent of apoptotic cells is shown. (FIG. 2e) Cells were treated with DMSO or 1 μM 6-thio-dG for 14 days and telomere length was assessed by Southern blotting of TRF. Mean TRF length expressed as kilobase pairs is indicated at the bottom. (FIGS. 2f-g) Cells were treated with 1 μM 6-thio-dG for 7 days. (FIG. 2f) ROS production was measured by H2DCFDA fluorescence and normalized to MSO treated cells. (FIG. 2g) DNA damage was assessed by γH2AX staining. Data represent average from three independent experiments±SEM. *p<0.05; **p<0.01; ***p<0.005 in unpaired Student's t-test. […] Tumor volume was measured and average tumor volume (n=4)±SEM was plotted vs. time.\nas §1"}, "[3]": {"system": "detoxifying enzymes such as SOD2, GPX1 and UCP2", "experiment": "mRNA levels of detoxifying enzymes by qRT-PCR", "details": "1 μM 6-thio-dG for 7 days", "experimental": "FIGS. 3a-g. Telomere dysfunction enhances oxidative stress leading to upregulation of an antioxidant program. (FIGS. 3a-d) NRASmut melanoma cells were transduced with TERT shRNA (FIG. 3a, FIG. 3c) or treated with 1 μM 6-thio-dG for 7 days (FIG. 3b, FIG. 3d). mRNA levels of the indicated genes were quantified by qRT-PCR (FIG. 3a, FIG. 3b). Mitochondrial superoxide production was measured by MitoSox Red fluorescence (FIG. 3c, FIG. 3d) and expressed as fluorescence relative to vector or DMSO controls. (FIG. 3e) NRASmut melanoma cells were treated with 1 μM of 6-thio-dG for the indicated times and SOD2 protein levels measured by Western blotting. (FIG. 3f) SOD2 was silenced using shRNA. Transduced M93-047 cells were treated with DMSO or 1 μM of 6-thio-dG and cell death was assessed by Annexin V/PI straining. (FIG. 3g) M93-047 cells were transduced with a SOD2 lentiviral construct or empty vector control (pLX304). Transduced cells were treated with increasing doses (1, 2.5 and 5 μM) of 6-thio-dG for 7 days and cell death was assessed. Data represent average from three independent experiments±SEM. *p<0.05; **p<0.01; ***p<0.005 in unpaired Student's t-test."}},
  "data": [
    {"smiles": "Nc1nc2c(ncn2[C@H]2C[C@H](O)[C@@H](CO)O2)c(=S)[nH]1", "note": "[6-thio-dG, 6-thio-2′-deoxy-guanosine]", "values": [
      {"measurement": "TIFs", "setting": "[1]", "result": "increased levels"},
      {"measurement": "γH2AX levels", "setting": "[2]", "result": "increased levels"},
      {"measurement": "GPX1 expression", "setting": "[3]", "result": "upregulation"},
      {"measurement": "SOD2 expression", "setting": "[3]", "result": "upregulation"},
      {"measurement": "UCP2 expression", "setting": "[3]", "result": "upregulation"}
    ]}
  ]
}
